Legend:
rat RXFP1 = target: T1, rat RXFP1 (Rattus norvegicus, UniProt Q6R6I6); test: P-PLB(S16) immunoblot in NRVMs transduced with rat RXFP1 virus; type: cell-based; conditions: 1 μM ML290 for 30 minutes
T1 construct: expressed in transfected cells
T1 sequence (Q6R6I6 1-758): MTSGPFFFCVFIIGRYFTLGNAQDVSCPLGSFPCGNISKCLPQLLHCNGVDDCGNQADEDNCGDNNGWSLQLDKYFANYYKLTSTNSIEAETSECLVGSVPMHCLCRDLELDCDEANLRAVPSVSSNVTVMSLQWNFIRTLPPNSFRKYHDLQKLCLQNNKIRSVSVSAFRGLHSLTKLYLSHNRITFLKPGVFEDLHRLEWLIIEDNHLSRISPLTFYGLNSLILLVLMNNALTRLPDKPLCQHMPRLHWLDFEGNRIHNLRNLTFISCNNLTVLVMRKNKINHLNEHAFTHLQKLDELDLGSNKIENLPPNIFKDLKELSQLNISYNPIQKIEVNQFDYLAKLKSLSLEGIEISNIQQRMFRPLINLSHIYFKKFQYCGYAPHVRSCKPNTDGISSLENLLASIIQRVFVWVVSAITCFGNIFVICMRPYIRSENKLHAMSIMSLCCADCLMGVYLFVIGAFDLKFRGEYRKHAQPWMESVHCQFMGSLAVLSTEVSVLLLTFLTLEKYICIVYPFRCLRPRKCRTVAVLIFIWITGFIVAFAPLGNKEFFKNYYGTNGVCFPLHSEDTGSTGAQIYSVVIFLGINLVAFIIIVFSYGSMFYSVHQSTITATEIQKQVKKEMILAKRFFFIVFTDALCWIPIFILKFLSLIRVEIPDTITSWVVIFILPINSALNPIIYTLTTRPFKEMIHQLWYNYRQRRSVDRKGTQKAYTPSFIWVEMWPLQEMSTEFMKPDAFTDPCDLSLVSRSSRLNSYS
From the text: (§1) Images were processed using Odyssey imaging software.

human RXFP1 = target: T2, human RXFP1 (Homo sapiens, UniProt Q9HBX9); test: P-PLB(S16) immunoblot in NRVMs transduced with human RXFP1 virus; type: cell-based, rat
T2 construct: synthesized and cloned into a pCDNA3.1 plasmid with N-terminal FLAG-TAG; expressed in transfected cells; host or cells: neonatal rat ventricular cardiomyocytes (NRVMs) transduced with AAV6-huRXFP1
From the text: as §1

[1] = target: rat (Rattus norvegicus) relaxin receptor 1 (RXFP1) with N-terminal FLAG-TAG, expressed in neonatal rat ventricular cardiomyocytes from AAV6-CMV-MLC260-FLAG-Rel1 Rattus (Rattus norvegicus) (UniProt Q6R6I6); test: cell-based or functional assay
[2] = system: TAC-induced heart failure in mice; test: TAC heart failure model, echocardiography after AAV9-RXFP1 (rat) gene therapy with or without RLN pumps; type: in vivo, C57BL/6 mice; conditions: day 55, control AAV9.LUC virus, RLN pump
Method: Transverse aortic constriction (TAC) operation was previously described (Rockman et al., 1991, Proc. Natl. Acad. Sci. 88: 8277-8281). TAC model was used as heart failure model. 8 weeks old C57BL/6 mice were weighted prior to the operation. TAC operation was performed on day 0 using 26-gauge blunt needle effectively reducing the diameter of the transverse aorta to approximately 0.46 mm (Rockman et al., 1994, Proc. Natl. Acad. Sci. 91(7): 2694-2698). Cardiac function was assessed by echocardiography (Vevo 2100 VisualSonics) before TAC operation (day −2), before virus infusion (day 7), before pump implantation (day 28), and at 2-month follow up (day 55) (FIG. 1A and B). […] Osmotic pumps (Alzet 2004) were implanted on day 28 with animals randomized to get either saline or recombinant relaxin pumps. Follow up assessments were performed on day 55 and the animals were sacrificed 3 days later. In addition, 17 mice served as control animals which underwent sham operation, followed by either saline or recombinant relaxin pump implantation.
Echocardiography was performed using Vevo 2100, VisualSonics. The mice were shaved and held in prone position. […] The ejection fraction (EF), fractional shortening (FS), left ventricular internal diameter (LVIDd) and heart rate (HR) were calculated from 6 consecutive heartbeats in the M-mode using LV trace function.

[3] = Circulating plasma levels of recombinant relaxin H2 by ELISA; type: in vivo, mice; conditions: all animals receiving RLN by osmotic pump
Method: Circulating plasma levels of recombinant relaxin H2 were measured using a ready to use relaxin H2 Quantikine ELISA kit from R&D Systems (DLR200). Plasma samples were diluted 1:200 to stay within the detection range of the assay. 50 μL of negative control, positive control, standard and diluted samples were used for the measurement.

RXFP1 receptor = target: T3, RXFP1 receptor (Rattus norvegicus, UniProt Q6R6I6); test: cAMP production (cAMP Glo assay) in RXFP1-transduced NRVMs stimulated with RLN; type: cell-based
T3 construct: expressed in transfected cells; host or cells: neonatal rat ventricular cardiomyocytes (NRVMs) transduced with AAV6-RXFP1
T3 sequence (Q6R6I6 1-758): T1 sequence (Q6R6I6 1-758)
Method: Manufacture's manual was followed. […] The luminescence was measured with a luminometer.

[4] = system: TAC-induced heart failure in mice; test: TAC heart failure model, echocardiography after huRXFP1 gene therapy with or without RLN pumps; type: in vivo, C57BL/6 mice; conditions: day 55, control AAV9.LUC virus, RLN pump
Method: Heart failure model was generated by transverse aortic constriction operation (TAC) previously described (Rockman et al., 1991, Proc. Natl. Acad. Sci. 88: 8277-8281). 8 weeks old C57BL/6 mice were ordered and weighted prior to the operation. TAC operation was performed on day 0 using 26-gauge blunt needle effectively reducing the diameter of the transverse aorta to approximately 0.46 mm (Rockman et al., 1994, Proc. Natl. Acad. Sci. 91(7): 2694-2698). Cardiac function measurements were performed before Transverse aortic Constriction (TAC) operation (day −2) before virus infusion (day 7), before pump implantation (day 28), and at 2-month follow up time point (day 55) (FIG. 7A). […] Osmotic pumps were implanted on day 28 with animals randomized to get either saline or recombinant relaxin pumps. Follow up assessments were performed on day 55 and the animals were sacrificed 3 days later. In addition, 17 mice served as control animals that were sham operated followed by either saline or recombinant relaxin pumps implantation.
Echocardiography was performed using Vevo 2100, VisualSonics. The mice were shaved on the chest and held in prone position. […] The ejection fraction (EF) was calculated from 6 consecutive heartbeats in the M-mode using LV trace function.

[5] = system: adult mouse cardiomyocytes expressing RXFP1; test: Ca2+ transient measurement in adult cardiomyocytes of RXFP1 transgenic mice; type: cell-based; conditions: isolated TG adult cardiomyocytes, 100 nM RLN, 1 minute
From the text: Adult mouse cardiac cells were isolated a modified protocol from Harding et al. (Harding et al., 1990, Cardioscience. 1: 49-54). The mouse heart was perfused with digestion buffer in the Langendorff technique, thus enabling dissociation of single cardiac cells. An adult male mouse (30-35 g) was quickly euthanatized by cervical dislocation. Incision areas on the abdomen and thorax were sterilized with 70% ethanol and opened with lateral cuts by scissors. The abdominal Vena Cava was exposed, and heparin was given I.V. Then the heart was exposed and cut out with a large portion of the aorta and quickly placed into a 6 cm Petri dish with 10 mL of room temperature perfusion buffer. The aorta was slid onto the cannula of the Langendorff apparatus and fixed with a double knots surgical suture. Perfusion was started immediately with a drip rate of ˜3.5 mL/min. Filling of the coronary arteries was checked and evaluated in order to determine, if the heart was correctly positioned on the cannula. In order to remove residual serum traces and free Ca2+, the heart was washed with perfusion buffer for 1 minute. After that the heart was perfused with digestion buffer containing a mixture of liberase (mixture of collagenases) and trypsin solution for 10 minutes. The perfusion was stopped, when the heart became flaccid and easily penetrable by fine tip forceps. […]
Intracellular Ca^2+ transients were measured according to Yu et al. with modifications to fit available apparatus (Yu et al., 2013, J. Biol. Chem. 288(31): 22481-22492). […] Next the dish was protected from light and connected to an electrode system on the table of a high throughput inverted fluorescence microscope (Cytocypher). […] The alternative measurement of the bispectral emission (340 nm/380 nm) was performed with the fluorescence microscope for baseline and after 1, 5, and 10 minutes stimulation with NaCl, 100 nM RLN, and 10 nM ISO. The transients were calculated using transient calculated software from the cytocypher. The following parameters were analyzed: a) Peak Height, b) Departure velocity, and c) Return velocity.

huRXFP1 = target: T4, huRXFP1 (Homo sapiens, UniProt Q9HBX9); test: Pressure-volume loop hemodynamics in huRXFP1 TG animals after RLN administration; type: in vivo, mouse; conditions: RXFP1 transgenic animals vs WT animals, 10 μg RLN I.P.
T4 construct: FLAG huRXFP1 was cloned onto a place holder plasmid; expressed in transfected cells; host or cells: transgenic mice, cardiomyocyte expression under the alpha-MHC promoter (in vivo)
T4 sequence (Q9HBX9 with tags, fused parts or gaps): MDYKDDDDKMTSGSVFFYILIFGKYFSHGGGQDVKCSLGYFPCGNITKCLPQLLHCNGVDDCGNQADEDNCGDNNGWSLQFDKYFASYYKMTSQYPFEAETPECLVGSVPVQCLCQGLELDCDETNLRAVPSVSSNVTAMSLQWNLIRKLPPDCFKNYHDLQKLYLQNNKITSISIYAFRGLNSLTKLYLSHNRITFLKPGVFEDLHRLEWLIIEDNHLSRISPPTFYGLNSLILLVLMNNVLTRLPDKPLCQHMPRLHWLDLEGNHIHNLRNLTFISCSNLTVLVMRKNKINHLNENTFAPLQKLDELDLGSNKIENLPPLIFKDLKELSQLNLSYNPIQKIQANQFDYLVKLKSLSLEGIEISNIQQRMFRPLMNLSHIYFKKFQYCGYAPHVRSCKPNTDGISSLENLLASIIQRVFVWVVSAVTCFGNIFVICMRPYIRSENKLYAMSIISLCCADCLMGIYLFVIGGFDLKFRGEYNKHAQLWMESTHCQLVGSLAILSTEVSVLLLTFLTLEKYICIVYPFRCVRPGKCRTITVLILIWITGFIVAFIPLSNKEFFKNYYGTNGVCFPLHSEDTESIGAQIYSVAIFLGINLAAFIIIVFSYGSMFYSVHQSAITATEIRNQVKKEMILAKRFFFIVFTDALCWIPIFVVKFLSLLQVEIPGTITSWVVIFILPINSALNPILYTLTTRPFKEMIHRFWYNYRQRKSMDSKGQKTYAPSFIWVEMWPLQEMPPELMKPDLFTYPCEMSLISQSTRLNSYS
Method: Pressure-volume loop (PV loop) measurement was performed modified from Abraham and Mao (Abraham and Mao (2015), J. Vis. Exp. (103): e52942). The animal was anesthetized according to the body weight with a cocktail of medetomidine, midazolam, and fentanyl intraperitoneally 15 minutes prior to the measurements. After the righting reflex was lost, the mouse was secured to the operating table with surgical tape. Prior to the measurement, the catheter tip was equilibrated in warm saline for 30 minutes. The neck and chest area was cleaned with ethanol and the fur was removed. An incision was made over the right carotid from mandible to sternum. The surrounding tissue was dissected to expose the right carotid, and the vagus nerve, which runs adjacent to the carotid, was […]. Sterile 6.0 silk suture was placed around the distal end (away from the chest) of the carotid artery, tied and secured. An additional suture was placed below the first suture on the carotid artery. The second suture was loosely tightened and clamped the carotid artery proximally to the second suture. […] The PV loops were continuously recorded throughout the experiment until 10 minutes after administration of the tested substances.
minimum were calculated according to the manufacturer's recommendation (Transonic). […]

For CC(C)Oc1ccccc1C(=O)Nc1ccccc1C(=O)Nc1cccc(S(=O)(=O)C(F)(F)F)c1 [ML290, 2-Isopropoxy-N-(2-(3-(trifluoromethylsulfonyl)phenylcarbamoyl)phenyl)benzamide], the “P-PLB(S16)” value (rat RXFP1) was “Marked increase”, the “P-PLB(S16), 1 μM ML290 vs 100 nM recombinant RLN” value (human RXFP1) was “No difference” and the “P-PLB(S16)” value (human RXFP1; 1 μM ML290 for 30 minutes) was “Significant increase”.
“recombinant relaxin H2 (from UniProt P04090 25-53; P04090 162-185) (ligand)” gave an RLN concentration of peak cAMP stimulation in transduced NRVMs [1] of 10 nM.
For “RLN: recombinant relaxin H2 peptide hormone, RXFP1 agonist”, the “Ejection fraction (EF)” value [2] was 47.79±13.38%, the “Fractional shortening (FS)” value [2] was 23.98±7.64 and the RLN plasma levels [3] was “elevated”. For the same compound, the “RLN concentration at peak stimulation of the RXFP1 receptor (cAMP)” value (RXFP1 receptor; 30 minutes) was 10 nM, the “cAMP accumulation with higher recombinant RLN concentrations” value (RXFP1 receptor; above 10 nM RLN) was “no further increase” and the “Ejection fraction (EF)” value [4] was 50.02±18.31%. For the same compound, the “Ca2+ transient Departure velocity” value [5] was “trend toward an increase”, the “Ca2+ transient Peak Height” value [5] was “trend toward an increase” and the “Ca2+ transient Return velocity” value [5] was “trend toward an increase”. For the same compound, the “Heart rate (HR)” value (huRXFP1) was “significant increase” and the dP/dt maximum (huRXFP1) was “significant increase”.

— patent US20220008508A1, “RELAXIN RECEPTOR 1 FOR USE IN TREATMENT AND PREVENTION OF HEART FAILURE” (Universität Heidelberg, priority 2018, published 2022)
